# Laboratory results as given in patent EP0497852B1, “BICYCLO-IMIDAZOLES, PROCESS FOR PRODUCING THEM AND DRUGS CONTAINING THEM” (BOEHRINGER MANNHEIM GMBH, priority 1989, dated 1991).
# Test system: Erythrozyten-Aggregation
# Assay: Erythrocyte aggregation in human blood, Mini-Erythrozyten-Aggregometer (Myrenne)
# Format: cell-based, Humanblut gesunder Spender
# Conditions: 10⁻⁵ M, haematocrit 45 %, difference between control baseline and substance solution, two experiments, different donors, index dimensionless
# Excerpt: Die Bestimmung der Erythrozyten-Aggregation als Parameter für die Hämorheologie erfolgte mit dem Mini-Erythrozyten-Aggregometer der Fa. Myrenne, Roetgen¹). Als Maß gibt dieses Gerät einen dimensionslosen Index an, der mit steigender Aggregationstendenz zunimmt.
# Die Untersuchungen wurden mit dem Humanblut gesunder Spender durchgeführt. Das auf einen Haematokrit von 45 % eingestellte Blut wurde mit der Kontrollösung oder den Substanzlösungen inkubiert. Anschließend wurde die Erythrozyten-Aggregation gemessen. Jede Substanz wurde bei einer Konzentration von 10⁻⁵ M untersucht. Pro Substanz wurden zwei Versuche mit dem Blut verschiedener Spender durchgeführt. Es wurde die Differenz der Aggregationsindices zwischen dem Ausgangswert der Kontrollösung und den Werten der Substanzlösung errechnet. Diese Werte sind in der folgenden Tabelle aufgelistet.
row,Structure (SMILES),Differenz der Erythrozytenaggregationsindices (E₂-E₁)
1,"CN1C(=O)C(C)(C)c2cc(-c3c[nH]c(-c4ccccc4)n3)ccc21 [Beispiel 17, 1,3-Dihydro-1,3,3-trimethyl-5-[2-phenyl-4(1H)-imidazolyl]-(2H)-indol-2-on]",-8.6
2,"CC1(C)CC(=O)Nc2ccc(-c3c[nH]c(-c4ccccc4)n3)cc21 [Beispiel 14, 3,4-Dihydro-4,4-dimethyl-6-[2-phenyl-4(1H)-imidazolyl]-2(1H)-chinolinon]",-7.2
3,"CC1(C)C(=O)Nc2ccc(-c3c[nH]c(-c4ccc(Cl)cc4)n3)cc21 [Beispiel 6, 1,3-Dihydro-3,3-dimethyl-5-[2-(4-chlorphenyl)-4(1H)-imidazolyl]-(2H)-indol-2-on]",-8.2
4,"CCN1C(=O)C(C)(C)c2cc(-c3c[nH]c(-c4ccc(F)cc4)n3)ccc21 [Beispiel 5, 1,3-Dihydro-3,3-dimethyl-1-ethyl-5-[2-(4-fluorphenyl)-4(1H)-imidazolyl]-(2H)-indol-2-on]",-8.7
